Data: patent US7842806B2, “Pyridopyrimidone derivatives, preparation thereof, therapeutic use thereof” (sanofi-aventis, priority 2006, dated 2010)
Where two headings read alike, the source gives them in different places.

Legend:
[1] = system: MDA-MB231 cells; experiment: MTS cell proliferation and viability test, MDA-MB231 breast cancer line; type: cell-based, human; settings: incubating for 72 hours, read-out: IC50 (concentration which results in a 50% loss of cell proliferation and viability)
Procedure: […]
(§1) The cell proliferation and viability were determined in a test using 3-(4,5-dimethylthiazol-2-yl)-5-(3-carboxymethoxyphenyl)-2-(4-sulfophenyl)-2H-tetrazolium (MTS) according to Fujishita T. et al., Oncology, 2003, 64 (4), 399-406. In this test, the mitochondrial ability of the living cells to convert MTS to a colored compound is measured after incubating for 72 hours a compound of formula (I) according to the invention. […]

[2] = system: K562 cells; experiment: MTS cell proliferation and viability test, K562 leukemia line; type: cell-based, human; settings: incubating for 72 hours, read-out: IC50 (concentration which results in a 50% loss of cell proliferation and viability)
Procedure: […]
as §1

Compound	IC50 [1] [nM]	IC50 [2] [nM]	IC50 ([2]; Homo sapiens) [nM]
CNC(=O)C1COc2ccc(Nc3ncc4cc(-c5c(Cl)cccc5Cl)c(=O)n(C)c4n3)cc2O1 (racemic) [Example 8, (R/S)-N-methylamide of 7-[6-(2,6-dichlorophenyl)-8-methyl-7-oxo-7,8-dihydropyrido[2,3-d]pyrimidin-2-ylamino]-2,3-dihydrobenzo[1,4]dioxin-2-carboxylic acid]	183	20.5	
Cn1c(=O)c(-c2c(Cl)cccc2Cl)cc2cnc(Nc3ccc4c(c3)OC(CN)O4)nc21 (racemic) [Example 1, (R/S)-2-[[2-(aminomethyl)-1,3-benzodioxol-5-yl]amino]-6-(2,6-dichlorophenyl)-8-methyl-8H-pyrido[2,3-d]pyrimidin-7-one]			3
Cn1c(=O)c(-c2c(Cl)cccc2Cl)cc2cnc(Nc3ccc4c(c3)COC4)nc21 [Example 2, 6-(2,6-dichlorophenyl)-2-[(1,3-dihydro-5-iso-benzofuranyl)amino]-8-methyl-8H-pyrido[2,3-d]pyrimidin-7-one]	10		
